Results taken from ChEMBL document CHEMBL4507266, “Data for DCP probe BAY-784” (2021).

Tests used:
[1] = system: Tyrosine-protein kinase ABL1 (Homo sapiens), P00519 [F317I]; conditions: Compound concentration 1000.0 nM
[2] = system: Tyrosine-protein kinase ABL1 (Homo sapiens), P00519 [Q252H]; conditions: Compound concentration 1000.0 nM
[3] = target: Tyrosine-protein kinase ABL1 (Homo sapiens) (UniProt P00519); conditions: Compound concentration 1000.0 nM
[4] = target: Activin receptor type-1-like (Homo sapiens) (UniProt P37023); conditions: Compound concentration 1000.0 nM
[5] = target: Cyclin-dependent kinase 13 (Homo sapiens) (UniProt Q14004); conditions: Compound concentration 1000.0 nM
[6] = target: Cyclin-dependent kinase 4 (Homo sapiens) (UniProt P11802); conditions: Compound concentration 1000.0 nM
[7] = target: Cyclin-dependent kinase-like 3 (Homo sapiens) (UniProt Q8IVW4); conditions: Compound concentration 1000.0 nM
[8] = target: Casein kinase I isoform alpha-like (Homo sapiens) (UniProt Q8N752); conditions: Compound concentration 1000.0 nM
[9] = target: Ephrin type-A receptor 2 (Homo sapiens) (UniProt P29317); conditions: Compound concentration 1000.0 nM
[10] = target: Mitogen-activated protein kinase 3 (Homo sapiens) (UniProt P27361); conditions: Compound concentration 1000.0 nM
[11] = target: Mitogen-activated protein kinase 10 (Homo sapiens) (UniProt P53779); conditions: Compound concentration 1000.0 nM
[12] = target: Tyrosine-protein kinase Lck (Homo sapiens) (UniProt P06239); conditions: Compound concentration 1000.0 nM
[13] = target: LIM domain kinase 2 (Homo sapiens) (UniProt P53671); conditions: Compound concentration 1000.0 nM
[14] = target: Serine/threonine-protein kinase STK11 (Homo sapiens) (UniProt Q15831); conditions: Compound concentration 1000.0 nM
[15] = target: Mitogen-activated protein kinase kinase kinase 2 (Homo sapiens) (UniProt Q9Y2U5); conditions: Compound concentration 1000.0 nM
[16] = target: Dual specificity mitogen-activated protein kinase kinase 6 (Homo sapiens) (UniProt P52564); conditions: Compound concentration 1000.0 nM
[17] = target: Hepatocyte growth factor receptor (Homo sapiens) (UniProt P08581); conditions: Compound concentration 1000.0 nM
[18] = target: Mitogen-activated protein kinase kinase kinase 11 (Homo sapiens) (UniProt Q16584); conditions: Compound concentration 1000.0 nM
[19] = system: Phosphatidylinositol 4,5-bisphosphate 3-kinase catalytic subunit alpha isoform (Homo sapiens), P42336 [M1043I]; conditions: Compound concentration 1000.0 nM
[20] = target: Phosphatidylinositol 4-kinase beta (Homo sapiens) (UniProt Q9UBF8); conditions: Compound concentration 1000.0 nM
[21] = target: Serine/threonine-protein kinase SIK3 (Homo sapiens) (UniProt Q9Y2K2); conditions: Compound concentration 1000.0 nM
[22] = target: Receptor-interacting serine/threonine-protein kinase 2 (Homo sapiens) (UniProt O43353); conditions: Compound concentration 1000.0 nM
[23] = target: Ribosomal protein S6 kinase alpha-3 (Homo sapiens) (UniProt P51812); conditions: Compound concentration 1000.0 nM
[24] = target: Ribosomal protein S6 kinase alpha-6 (Homo sapiens) (UniProt Q9UK32); conditions: Compound concentration 1000.0 nM
[25] = target: Ribosomal protein S6 kinase beta-1 (Homo sapiens) (UniProt P23443); conditions: Compound concentration 1000.0 nM
[26] = target: Serine/threonine-protein kinase ULK1 (Homo sapiens) (UniProt O75385); conditions: Compound concentration 1000.0 nM
[27] = target: Serine/threonine-protein kinase WNK2 (Homo sapiens) (UniProt Q9Y3S1); conditions: Compound concentration 1000.0 nM
[28] = target: Tyrosine-protein kinase ZAP-70 (Homo sapiens) (UniProt P43403); conditions: Compound concentration 1000.0 nM
[29] = target: 5-hydroxytryptamine receptor 2B (Homo sapiens) (UniProt P41595); conditions: Compound concentration 10.0 uM
[30] = target: T1, 5-hydroxytryptamine receptor 2C (Homo sapiens) (UniProt P28335); conditions: Compound concentration 10.0 uM
T1 sequence (whole entry): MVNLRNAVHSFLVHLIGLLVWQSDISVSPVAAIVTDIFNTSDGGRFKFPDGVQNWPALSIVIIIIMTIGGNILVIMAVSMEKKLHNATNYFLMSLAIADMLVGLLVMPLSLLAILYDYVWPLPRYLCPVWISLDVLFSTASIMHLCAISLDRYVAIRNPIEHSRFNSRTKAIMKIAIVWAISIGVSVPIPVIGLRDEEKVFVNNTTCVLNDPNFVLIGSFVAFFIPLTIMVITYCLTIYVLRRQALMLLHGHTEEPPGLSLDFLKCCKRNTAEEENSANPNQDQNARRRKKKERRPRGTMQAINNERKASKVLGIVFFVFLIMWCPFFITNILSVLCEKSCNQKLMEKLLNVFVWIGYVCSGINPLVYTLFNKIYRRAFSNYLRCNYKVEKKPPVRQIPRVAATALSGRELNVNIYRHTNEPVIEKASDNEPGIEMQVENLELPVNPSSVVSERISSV

[31] = target: T2, Alpha-1D adrenergic receptor (Homo sapiens) (UniProt P25100); conditions: Compound concentration 10.0 uM
T2 sequence (whole entry): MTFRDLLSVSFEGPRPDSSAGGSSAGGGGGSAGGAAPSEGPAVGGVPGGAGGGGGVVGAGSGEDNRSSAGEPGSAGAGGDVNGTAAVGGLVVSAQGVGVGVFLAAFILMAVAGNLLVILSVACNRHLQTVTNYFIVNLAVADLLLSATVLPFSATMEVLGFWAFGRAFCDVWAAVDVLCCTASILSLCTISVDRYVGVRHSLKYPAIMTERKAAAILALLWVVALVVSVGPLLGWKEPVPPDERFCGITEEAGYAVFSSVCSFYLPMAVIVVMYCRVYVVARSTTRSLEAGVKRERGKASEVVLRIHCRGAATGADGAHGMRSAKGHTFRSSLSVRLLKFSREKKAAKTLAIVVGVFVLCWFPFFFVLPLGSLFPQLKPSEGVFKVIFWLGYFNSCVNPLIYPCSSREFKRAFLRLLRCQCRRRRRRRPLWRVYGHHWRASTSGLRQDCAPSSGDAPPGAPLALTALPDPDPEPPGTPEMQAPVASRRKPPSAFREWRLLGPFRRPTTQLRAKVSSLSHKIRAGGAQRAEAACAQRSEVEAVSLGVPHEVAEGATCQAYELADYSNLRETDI

Sequence of Ribosomal protein S6 kinase alpha-3 (Homo sapiens) (P51812 whole entry): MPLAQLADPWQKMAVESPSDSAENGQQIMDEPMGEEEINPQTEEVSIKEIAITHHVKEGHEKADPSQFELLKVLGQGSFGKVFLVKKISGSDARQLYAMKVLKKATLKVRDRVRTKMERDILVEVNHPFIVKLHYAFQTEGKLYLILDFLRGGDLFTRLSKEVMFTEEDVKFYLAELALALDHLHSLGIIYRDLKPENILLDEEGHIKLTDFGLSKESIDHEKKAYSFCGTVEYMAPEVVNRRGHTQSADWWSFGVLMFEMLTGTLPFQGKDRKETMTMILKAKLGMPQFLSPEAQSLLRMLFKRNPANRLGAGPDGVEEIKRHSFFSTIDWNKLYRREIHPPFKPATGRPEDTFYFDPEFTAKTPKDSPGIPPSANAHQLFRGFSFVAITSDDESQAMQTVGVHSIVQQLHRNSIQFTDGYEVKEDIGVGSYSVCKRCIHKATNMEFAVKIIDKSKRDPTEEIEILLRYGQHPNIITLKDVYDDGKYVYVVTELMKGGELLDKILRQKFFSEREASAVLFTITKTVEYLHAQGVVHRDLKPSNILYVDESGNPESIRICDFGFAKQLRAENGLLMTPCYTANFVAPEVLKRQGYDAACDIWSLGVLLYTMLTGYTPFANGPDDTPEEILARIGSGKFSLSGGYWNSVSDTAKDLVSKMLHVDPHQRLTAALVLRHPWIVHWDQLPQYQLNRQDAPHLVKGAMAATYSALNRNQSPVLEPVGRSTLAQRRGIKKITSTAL
Sequence of Dual specificity mitogen-activated protein kinase kinase 6 (Homo sapiens) (P52564 whole entry): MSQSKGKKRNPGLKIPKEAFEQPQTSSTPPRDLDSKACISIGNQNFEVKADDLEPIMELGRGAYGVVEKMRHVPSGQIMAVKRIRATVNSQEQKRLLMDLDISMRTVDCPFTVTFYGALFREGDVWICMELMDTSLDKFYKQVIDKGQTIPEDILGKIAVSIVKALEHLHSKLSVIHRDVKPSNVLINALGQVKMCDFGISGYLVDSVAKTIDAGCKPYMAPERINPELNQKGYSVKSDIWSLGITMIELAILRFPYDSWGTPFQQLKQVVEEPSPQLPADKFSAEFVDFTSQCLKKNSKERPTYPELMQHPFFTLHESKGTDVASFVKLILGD
Sequence of Serine/threonine-protein kinase ULK1 (Homo sapiens) (O75385 whole entry): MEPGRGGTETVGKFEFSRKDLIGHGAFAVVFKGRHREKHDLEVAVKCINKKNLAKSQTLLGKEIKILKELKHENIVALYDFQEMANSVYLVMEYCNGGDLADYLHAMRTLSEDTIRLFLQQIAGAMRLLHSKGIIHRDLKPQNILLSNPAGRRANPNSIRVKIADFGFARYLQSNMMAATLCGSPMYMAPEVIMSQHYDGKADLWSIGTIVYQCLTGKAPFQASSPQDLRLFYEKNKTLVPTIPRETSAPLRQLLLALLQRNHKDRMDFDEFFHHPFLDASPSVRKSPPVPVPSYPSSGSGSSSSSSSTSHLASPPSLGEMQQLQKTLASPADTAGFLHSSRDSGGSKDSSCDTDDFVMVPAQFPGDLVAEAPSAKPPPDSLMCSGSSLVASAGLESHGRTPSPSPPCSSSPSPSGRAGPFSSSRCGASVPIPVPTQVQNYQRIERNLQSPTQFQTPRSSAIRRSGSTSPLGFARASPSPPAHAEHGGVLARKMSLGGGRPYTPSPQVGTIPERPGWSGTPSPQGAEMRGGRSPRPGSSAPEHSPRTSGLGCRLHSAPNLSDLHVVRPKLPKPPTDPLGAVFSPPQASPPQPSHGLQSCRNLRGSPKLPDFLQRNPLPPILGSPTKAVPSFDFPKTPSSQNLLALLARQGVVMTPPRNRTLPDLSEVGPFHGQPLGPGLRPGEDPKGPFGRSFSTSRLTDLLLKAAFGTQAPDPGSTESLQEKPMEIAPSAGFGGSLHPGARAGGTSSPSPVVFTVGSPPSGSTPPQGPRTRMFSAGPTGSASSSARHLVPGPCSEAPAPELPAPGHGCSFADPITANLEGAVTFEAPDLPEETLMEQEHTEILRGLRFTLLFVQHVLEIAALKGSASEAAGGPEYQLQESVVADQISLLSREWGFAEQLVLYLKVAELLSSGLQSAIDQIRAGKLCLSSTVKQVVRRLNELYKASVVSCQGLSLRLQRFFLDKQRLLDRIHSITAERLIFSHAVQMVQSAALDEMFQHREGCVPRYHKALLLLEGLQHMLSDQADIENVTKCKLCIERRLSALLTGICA
Sequence of Mitogen-activated protein kinase 10 (Homo sapiens) (P53779 whole entry): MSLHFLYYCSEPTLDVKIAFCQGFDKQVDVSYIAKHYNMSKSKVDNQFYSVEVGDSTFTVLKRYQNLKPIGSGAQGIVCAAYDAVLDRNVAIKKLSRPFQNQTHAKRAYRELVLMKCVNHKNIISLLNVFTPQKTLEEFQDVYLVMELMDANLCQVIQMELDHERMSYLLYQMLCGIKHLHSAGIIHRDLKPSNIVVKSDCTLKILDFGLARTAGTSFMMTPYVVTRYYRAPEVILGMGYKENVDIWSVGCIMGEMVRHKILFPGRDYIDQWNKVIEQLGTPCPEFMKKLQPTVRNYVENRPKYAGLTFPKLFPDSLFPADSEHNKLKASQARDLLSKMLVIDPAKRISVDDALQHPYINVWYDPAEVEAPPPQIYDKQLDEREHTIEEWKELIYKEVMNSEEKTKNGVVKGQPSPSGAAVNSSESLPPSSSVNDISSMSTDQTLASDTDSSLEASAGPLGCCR
Sequence of Ribosomal protein S6 kinase beta-1 (Homo sapiens) (P23443 whole entry, looked up): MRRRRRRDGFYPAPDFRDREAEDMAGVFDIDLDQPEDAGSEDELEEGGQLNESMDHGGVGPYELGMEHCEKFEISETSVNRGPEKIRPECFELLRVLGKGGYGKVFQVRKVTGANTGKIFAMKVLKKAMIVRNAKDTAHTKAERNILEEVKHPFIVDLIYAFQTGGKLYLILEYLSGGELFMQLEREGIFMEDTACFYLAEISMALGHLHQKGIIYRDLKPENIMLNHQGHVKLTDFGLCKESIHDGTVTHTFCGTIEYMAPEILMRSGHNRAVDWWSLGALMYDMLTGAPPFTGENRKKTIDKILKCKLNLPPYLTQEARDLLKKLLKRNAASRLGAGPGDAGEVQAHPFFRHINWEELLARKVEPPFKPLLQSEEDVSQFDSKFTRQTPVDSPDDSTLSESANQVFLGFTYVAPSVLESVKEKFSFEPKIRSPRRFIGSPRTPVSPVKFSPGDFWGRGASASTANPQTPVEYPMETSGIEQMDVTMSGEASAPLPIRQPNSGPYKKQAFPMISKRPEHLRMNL
Sequence of Mitogen-activated protein kinase kinase kinase 2 (Homo sapiens) (Q9Y2U5 whole entry): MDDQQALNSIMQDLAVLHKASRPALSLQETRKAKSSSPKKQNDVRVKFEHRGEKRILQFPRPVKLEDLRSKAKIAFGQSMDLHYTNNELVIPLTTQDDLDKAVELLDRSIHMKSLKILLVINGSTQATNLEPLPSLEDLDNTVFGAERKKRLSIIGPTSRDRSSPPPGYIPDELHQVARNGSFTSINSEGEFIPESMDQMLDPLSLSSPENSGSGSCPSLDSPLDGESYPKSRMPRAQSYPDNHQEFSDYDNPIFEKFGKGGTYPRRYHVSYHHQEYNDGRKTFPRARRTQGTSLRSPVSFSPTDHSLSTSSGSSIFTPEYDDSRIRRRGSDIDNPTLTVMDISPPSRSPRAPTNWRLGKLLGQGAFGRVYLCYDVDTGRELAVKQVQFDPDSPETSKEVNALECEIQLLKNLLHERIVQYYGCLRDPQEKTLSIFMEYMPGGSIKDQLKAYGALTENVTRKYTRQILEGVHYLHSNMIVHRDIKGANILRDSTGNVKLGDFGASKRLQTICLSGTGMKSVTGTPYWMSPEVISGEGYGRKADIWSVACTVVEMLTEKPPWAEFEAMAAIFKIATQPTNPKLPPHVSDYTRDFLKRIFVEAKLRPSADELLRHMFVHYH
Sequence of Phosphatidylinositol 4,5-bisphosphate 3-kinase catalytic subunit alpha isoform (Homo sapiens), P42336 [M1043I] (P42336 whole entry M1043I, canonical isoform): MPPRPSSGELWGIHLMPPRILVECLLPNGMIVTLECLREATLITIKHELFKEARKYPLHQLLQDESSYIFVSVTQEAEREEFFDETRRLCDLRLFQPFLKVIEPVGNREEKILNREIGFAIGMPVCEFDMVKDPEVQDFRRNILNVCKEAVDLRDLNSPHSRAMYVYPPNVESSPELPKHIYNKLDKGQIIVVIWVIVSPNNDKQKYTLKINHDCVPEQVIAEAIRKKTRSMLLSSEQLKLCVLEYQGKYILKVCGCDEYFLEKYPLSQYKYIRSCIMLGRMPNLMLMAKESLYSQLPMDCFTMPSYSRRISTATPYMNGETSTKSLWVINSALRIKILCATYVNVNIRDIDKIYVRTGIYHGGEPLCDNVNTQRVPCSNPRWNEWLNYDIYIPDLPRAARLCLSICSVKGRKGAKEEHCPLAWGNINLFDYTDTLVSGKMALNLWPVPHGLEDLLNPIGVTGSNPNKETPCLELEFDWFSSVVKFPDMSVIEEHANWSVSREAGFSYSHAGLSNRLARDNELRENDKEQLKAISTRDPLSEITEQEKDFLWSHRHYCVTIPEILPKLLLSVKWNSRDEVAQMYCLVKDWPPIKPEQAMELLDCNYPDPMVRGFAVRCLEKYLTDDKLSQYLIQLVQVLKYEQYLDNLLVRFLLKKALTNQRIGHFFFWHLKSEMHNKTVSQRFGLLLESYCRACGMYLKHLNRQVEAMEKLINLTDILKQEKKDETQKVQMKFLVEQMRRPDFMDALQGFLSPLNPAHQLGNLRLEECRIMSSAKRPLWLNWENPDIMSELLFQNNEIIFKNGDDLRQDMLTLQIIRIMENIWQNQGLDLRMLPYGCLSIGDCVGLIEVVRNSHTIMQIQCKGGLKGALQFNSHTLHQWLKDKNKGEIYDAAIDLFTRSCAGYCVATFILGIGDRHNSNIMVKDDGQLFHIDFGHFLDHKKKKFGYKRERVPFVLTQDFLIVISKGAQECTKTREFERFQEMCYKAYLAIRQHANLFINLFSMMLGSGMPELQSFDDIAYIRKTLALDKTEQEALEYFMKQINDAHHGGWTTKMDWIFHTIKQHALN

Row | Structure (SMILES) | residual activity [1] [%] | residual activity [2] [%] | residual activity [3] [%] | residual activity [4] [%] | residual activity [5] [%] | residual activity [6] [%] | residual activity [7] [%] | residual activity [8] [%] | residual activity [9] [%] | residual activity [10] [%] | residual activity [11] [%] | residual activity [12] [%] | residual activity [13] [%] | residual activity [14] [%] | residual activity [15] [%] | residual activity [16] [%] | residual activity [17] [%] | residual activity [18] [%] | residual activity [19] [%] | residual activity [20] [%] | further results
1 | O=C(NCc1ncc(C(F)(F)F)cc1Cl)c1ccc2c(c1)C1(CCS(=O)(=O)CC1)[C@H](C1CC1)N2S(=O)(=O)c1ccc(F)cc1 [BAY-784] | 83 | 100 | 92 | 98 | 88 | 88 | 100 | 95 | 100 | 100 | 88 | 100 | 100 | 100 | 66 | 100 | 100 | 100 | 93 | 78 | residual activity [21]: 100%; residual activity [22]: 100%; residual activity [23]: 100%; residual activity [24]: 78%; residual activity [25]: 64%; residual activity [26]: 90%; residual activity [27]: 97%; residual activity [28]: 84%; inhibition [29]: -2.53%; inhibition [30]: 9.65%; inhibition [31]: 4.13%
2 | O=C(NCc1ncc(C(F)(F)F)cc1Cl)c1ccc2c(c1)C1(CCS(=O)(=O)CC1)[C@@H](C1CC1)N2S(=O)(=O)c1ccc(F)cc1 [BAY-786] | 71 | 100 | 89 | 72 | 89 | 88 | 100 | 100 | 84 | 83 | 73 | 100 | 94 | 100 | 88 | 100 | 81 | 100 | 56 | 100 | residual activity [21]: 72%; residual activity [22]: 100%; residual activity [23]: 82%; residual activity [24]: 84%; residual activity [25]: 72%; residual activity [26]: 80%; residual activity [27]: 0%; residual activity [28]: 72%; inhibition [29]: -2.32%; inhibition [30]: 16.9%; inhibition [31]: -3.69%
